Measurements taken from PMC12040169 (PLOS Biology, 2025).

Test: in vitro
Conditions: human, hela cells

Compound	viability at 28.5 h, 10 µM [%]
O=C(CC(c1ccccc1)c1c(O)c2ccccc2oc1=O)c1ccc(-c2ccc(Br)cc2)cc1 (stereo not drawn) [CBK260877]	91.8

Same assay, conditions: human, hela cells, % viability

Compound	viability at 28.5 h, 10 µM [%]
N#CC1=C(N)Oc2cc(O)ccc2C1c1ccccc1 (stereo not drawn) [CBK219303]	90.3
O=c1c(Cc2ccccc2)c(O)c2ccccc2n1Cc1ccccc1 [CBK219368]	85.8
CCC(=O)Nc1ccccc1C(=O)C(=O)O [CBK219398]	120
CCCCc1c(O)c2ccccc2n(Cc2ccccc2)c1=O [CBK219416]	106
Cc1ccc2nc(NCc3ccco3)c(/C=N/Cc3ccco3)c(=O)n2c1 [CBK220353]	80.4
O=C(CN1C(=O)c2ccccc2C1=O)NCC1COc2ccccc2O1 (stereo not drawn) [CBK222526]	96.8
NNC(=O)CSc1nnc(-c2ccccc2)n1-c1ccccc1 [CBK223486]	92.5
S=c1nc(-c2ccco2)n(Cc2ccccc2)c(=S)n1/C(=N/Cc1ccccc1)c1ccco1 [CBK223550]	108
O=C1CC(=O)N(Cc2ccccc2)C(=O)N1 [CBK224014]	91.7
O=C(O)CSc1nc2ccccc2[nH]1 [CBK225127]	95.3
COc1cc(NC(=O)c2ccccc2)c(C(=O)O)cc1OC [CBK227754]	89.9
N/C(CC(=O)Nc1cc(Cl)cc(Cl)c1)=N\O [CBK228614]	105
O=C(O)C1C(C(=O)O)C1C(=O)O (stereo not drawn) [CBK230432]	94.9
O=S(=O)(Oc1ccccc1)c1ccc2c(c1)Cc1cc(S(=O)(=O)Oc3ccccc3)ccc1-2 [CBK231928]	88.5
O=S(=O)(NCCSCc1ccco1)c1ccc(Cl)cc1 [CBK232206]	85.6
O=C(O)COCC(=O)N1CCN(C(c2ccccc2)c2ccccc2)CC1 [CBK232579]	84.3
Cc1nc(C)c(C(=O)C2=C(O)C(=O)N(CCCN3CCOCC3)C2c2ccncc2)s1 (stereo not drawn) [CBK235187]	97.3
COc1ccc(NCc2cc(=O)oc3cc4c(cc23)CCC4)cn1 [CBK235362]	88
Cn1c(=O)c2c(nc(CN3CCC(Cc4ccccc4)CC3)n2CC(=O)c2ccccc2)n(C)c1=O [CBK236846]	88
Cc1nc(CN2CCN(c3ccc4nnc(C(F)(F)F)n4n3)CC2)cs1 [CBK239750]	95.1
N#Cc1nc(-c2ccco2)oc1N1CCN(C(=O)c2cc3c(s2)CCCCC3)CC1 [CBK240763]	93.9
O=C(NC1CCN(c2ncccn2)CC1)c1ccc[nH]c1=S [CBK241695]	83.9
CCS(=O)(=O)N1CCC(NC(=O)NC(C)c2ccccc2Cl)CC1 (stereo not drawn) [CBK242304]	95.3

Compound	viability at 28.5 h, 10 µM [%]
COc1cc(Br)c(OC)c(C(=O)N(C)Cc2cnn(C)c2)c1 [CBK244011]	102
CC(=O)Nc1nc(C(=O)N2CCOC(c3ccc(F)cc3)C2)cs1 (stereo not drawn) [CBK244238]	99.3
Cc1ccc(C(=O)NCCNc2cnccn2)cc1S(C)(=O)=O [CBK246280]	103
Cc1c(Cl)cccc1NC(=O)c1cnc2sccn2c1=O [CBK246518]	115
Cc1cc(Br)ccc1NC(=O)c1cnc2sccn2c1=O [CBK246520]	112
CCc1noc(C)c1C(=O)NC(C)c1cc2ccccc2o1 (stereo not drawn) [CBK247065]	87.1
CCOc1cc2c(cc1NC(=O)CN(c1cccc(Cl)c1)S(C)(=O)=O)OC(C)C2 (stereo not drawn) [CBK248179]	94.6
Cc1nn(CC(C)C)c(Cl)c1C(=O)Nc1nc2ccc(F)cc2s1 [CBK252188]	90.4
O=C(Cn1cnc2ccc(F)cc2c1=O)N1CCOC2CCCCC21 (stereo not drawn) [CBK253316]	80.5
CN(CC(=O)NCc1ccco1)C1CCCCCC1 [CBK254305]	97.3
CCOc1ncccc1NC(=O)Cc1cccc(OC)c1 [CBK256406]	94.8
Cc1cc(NC(=O)NC2CCSc3ccccc32)no1 (stereo not drawn) [CBK259296]	74.8
N#Cc1cccc(C(=O)NCCc2nnc3n2CCCCC3)c1 [CBK259813]	105
Cc1[nH]c2ccccc2c1C(=O)CCC(=O)O [CBK260871]	95.5
Oc1n[nH]c2c1CCC2 [CBK260873]	95.4
Cc1n[nH]c(NN)c1Cl [CBK260876C]	89.5
CC(=O)O[B-]1(OC(C)=O)N(c2ccc(S(N)(=O)=O)cc2)N=C(c2ccccc2)N=[N+]1c1ccccc1 [CBK260879]	87.1
C(=N\c1cccc2c(/N=C/c3c[nH]c4ccccc34)cccc12)/c1c[nH]c2ccccc12 [CBK260887]	95.8
Oc1ccc2[nH]cc(CCNC(c3ccccc3)(c3ccccc3)c3ccccc3)c2c1 [CBK260891]	103
O=C(CSS(=O)(=O)O)NCc1ccccc1 [CBK260897N]	105
COc1ccc2sc(C)[n+](CCC(=O)O)c2c1 [CBK260899B]	83.5
O=S(=O)(O)CCCSc1nc2ccccc2s1 [CBK260900N]	100
O=C(O)CNc1ccccc1C(=O)O [CBK260902]	120

Compound	viability at 28.5 h, 10 µM [%]
O=C(O)C1CSC(c2cccnc2)N1 (stereo not drawn) [CBK260910]	111
O=C(Nc1cccc2c(NC(=O)C3CC3c3ccccc3)cccc12)C1CC1c1ccccc1 (stereo not drawn) [CBK260911]	99.1
O=C(O)c1ccc(NC(=O)c2nccnc2C(=O)O)cc1 [CBK260916]	97.7
CCOC(=O)c1c(NC(=O)Cn2cnc3ccccc32)sc2c1CCCC2 [CBK260917]	106
O=[N+]([O-])c1ccc(O)c(/C=N/Nc2nc(Nc3ccc(Cl)cc3)nc(N3CCOCC3)n2)c1 [CBK260918]	90.2
C/C(=N/Nc1ccc([N+](=O)[O-])cc1[N+](=O)[O-])C1CC1 [CBK260921]	104
O=C1/C(=N\Nc2ccc([N+](=O)[O-])cc2[N+](=O)[O-])c2ccccc2N1CN1CCCCC1 [CBK260926]	94.4
O=C1/C(=N\Nc2ccc([N+](=O)[O-])cc2[N+](=O)[O-])c2cc(Br)ccc2N1CN1CCCCC1 [CBK260927]	110
OCCOc1ccccc1OCCO [CBK260930]	93.6
O=C(O)CC(CP(c1ccccc1)c1ccccc1)C(=O)O (stereo not drawn) [CBK260931]	77.6
CC(C)(C)NS(=O)(=O)c1ccccc1[N+](=O)[O-] [CBK260932]	97.8
O=C(O)CCCC(=O)OCc1ccco1 [CBK260933]	98.1
O=S(=O)(O)c1cc(O)c2c(/N=N/c3c(S(=O)(=O)O)cc4cc(S(=O)(=O)O)cc(O)c4c3O)cc(S(=O)(=O)O)cc2c1 [CBK260934]	102
C/C(=N\NC(=O)c1ccccc1I)c1cccc(N)c1 [CBK260935]	107
O=C(O)/C=C(/CC(=O)O)C(=O)O [CBK260936]	102
O=C(NC(Cc1ccc(O)cc1)C(=O)O)c1ccccc1 (stereo not drawn) [CBK260937]	88.4
CC(CSSCC(C)C(=O)O)C(=O)O (stereo not drawn) [CBK260940]	96.7
CC(Cc1c[nH]c2ccccc12)NC(=O)CSS(=O)(=O)O (stereo not drawn) [CBK260942N]	93.3
COc1ccc2[nH]c(C(=O)O)c(CCNC(C)=O)c2c1 [CBK260943N]	113
CC(=O)c1ccc2[nH]c(C(=O)O)c(CCN)c2c1 [CBK260944]	91.6
CC(=O)NCCc1c(C(=O)O)[nH]c2ccc(OCc3ccccc3)cc12 [CBK260945]	87.8
CCn1c(C)nc2cc(S(N)(=O)=O)ccc21 [CBK260950]	92.1
O=C(O)CCC(=O)Nc1ccc(C(=O)O)cc1 [CBK260952]	96.6

Compound	viability at 28.5 h, 10 µM [%]
O=S(=O)(Nc1nc2ccccc2nc1Nc1ccccc1)c1ccccc1 [CBK260953]	94.5
O=C(O)C(O)C(O)c1nc2ccccc2[nH]1 (stereo not drawn) [CBK260955]	107
N#Cc1ccc(Oc2ccc(C(=O)C(=O)c3ccccc3)cc2)cc1C#N [CBK260959]	100
CC(C)(c1ccc(OC(=O)c2ccc(N)cc2)cc1)c1ccc(OC(=O)c2ccc(N)cc2)cc1 [CBK260962]	91.2
O=C(CCN1C(=O)c2ccccc2C1=O)N1CCOCCOCCN(C(=O)CCN2C(=O)c3ccccc3C2=O)CCOCCOCC1 [CBK260964]	89.9
NC(=O)CCC(NC=O)C(=O)O (stereo not drawn) [CBK260967]	88.4
CC(C(=O)O)c1cc(C(=O)c2ccccc2)sc1-c1ccccc1 (stereo not drawn) [CBK260968]	91.3
Cc1ccc(N)c(C(=O)CCCCC(=O)O)c1 [CBK260970]	90.5
O=[N+]([O-])c1ccccc1/C=N/Nc1nnn[nH]1 [CBK260971]	106
Oc1ccc(/C=N/Nc2nnn[nH]2)c(O)c1 [CBK260972]	99
c1ccc2c(c1)n[n+]1c3ccccc3[n-]n21 [CBK260974]	85.7
Cc1cc(C)nc(SCCC(=O)O)n1 [CBK260975]	87.7
Oc1ccc(/C=N/c2nnn[nH]2)cc1 [CBK260976]	101
Oc1cccc(/C=N/c2nnn[nH]2)c1 [CBK260977]	91.7
O=C1C2C(c3ccccc3)NC(c3ccccc3)C1C(c1ccccc1)NC2c1ccccc1 (stereo not drawn) [CBK260981]	93
COc1cccc(/C=C/C2=NN(c3cccc(F)c3)C(c3cccc(OC)c3OC)C2)c1OC (stereo not drawn) [CBK260983]	104
Cc1ccc(S(=O)(=O)OCCOS(=O)(=O)c2ccc(C)cc2)cc1 [CBK260986]	96.2
O=C(O)/C=C/C(=O)Nc1cccc(C(=O)O)c1 [CBK260988]	97.7
O=C(O)/C=C\C(=O)NCC(=O)O [CBK260989]	93.5
N=C(N)SCC1CNC(=N)S1 (stereo not drawn) [CBK260991]	99.3
NNC(=O)c1ccc(Oc2ccc(C(=O)NN)cc2)cc1 [CBK260995]	85.7
CN(CC(=O)O)c1ccccc1C(=O)O [CBK260996]	98.2

Same assay, conditions: human, hela cells, % viability, bulk resorufin, single well

Compound	viability at 28.5 h, 10 µM [%]
NCCc1c[nH]c2ccc(OCc3ccccc3)cc12 [CBK260980C]	84.9
